Counter-ions that a name gives are not always drawn.
What was measured:
[1] = system: SB.msgc-1; test: AC50 for growth inhibition (viability) (log10 M); higher = less potent; settings: SB.msgc-1 (sporadic gastric cancer)
How it was run: (§1)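 In 1536-well plates, each well held 500 patient-derived gastric cancer cells (hereditary or sporadic) in 5 μL medium. Compound in DMSO, 23 nL per well, was pinned in 11 threefold dilutions starting at a final 46 μM. Following 48 h of exposure, cells had CellTiter-Glo for 30 min at room temperature before ViewLux luminescence reading. Only high-quality curve classes from four-parameter fits of DMSO-normalised viability gave the log half-maximal activity concentration.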

[2] = system: SB.mhdgc-1; test: as above; settings: SB.mhdgc-1 (hereditary c.1380delA CDH1 gastric cancer)
How it was run: as §1

| Structure (SMILES) | AC50 for growth inhibition (log10 M) [1] | AC50 for growth inhibition (log10 M) [2] |
| --- | --- | --- |
| COc1ccc2[nH]cc(CCNC(C)=O)c2c1 [Melatonin] | -5.83 | -5.33 |
| COc1ccc(/C=C\c2cc(OC)c(OC)c(OC)c2)cc1NC(=O)[C@H](N)CO [Ombrabulin] | -8.38 | -7.78 |
| CC(C)C[C@H](NC(=O)c1cc2ccccc2s1)C(=O)N1CCN(C(=O)[C@H](CO)N[S+](=O)([O-])c2ccc(Cl)cc2Cl)CC1 | -4.73 | -4.73 |
| CC1(C)CCC[C@]2(C)[C@H]3CC(=O)O[C@]3(C)CC[C@@H]12 [Sclareolide] | -4.78 | -5.03 |
| CCOc1ccc(Cc2cc([C@@H]3O[C@H](CO)[C@@H](O)[C@H](O)[C@H]3O)ccc2Cl)cc1 [Dapagliflozin] | -4.98 | -5.18 |
| COc1ncc(-c2ccc3nccc(-c4ccnnc4)c3c2)cc1N[S+](=O)([O-])c1ccc(F)cc1F | -5.93 | -7.38 |
| C[S+](=O)([O-])N1CCc2c(-c3cnc(N)nc3)nc(N3CCOCC3)nc21 | -6.43 | -5.68 |
| Clc1ccc(C(c2ccccc2Cl)C(Cl)Cl)cc1 (configuration not stated) [Mitotane] | -4.73 | -4.88 |
| CC(=O)Nc1ccc([C@H](C)C(=O)Nc2ncc(C(C)C)s2)cc1 | -5.88 | -7.13 |
| CC(C)C[C@H](NC(=O)[C@H](CCc1ccccc1)NC(=O)CN1CCOCC1)C(=O)N[C@@H](Cc1ccccc1)C(=O)N[C@@H](CC(C)C)C(=O)[C@@]1(C)CO1 [Carfilzomib] | -7.68 | -7.93 |
| CC(C)C[C@H](NC(=O)[C@@H](NC(=O)c1cccc(-c2ccccc2)n1)[C@@H](C)O)B(O)O [Delanzomib] | -7.43 | -7.38 |
| CN(C)CC[C@H](CSc1ccccc1)Nc1ccc([S+](=O)([O-])NC(=O)c2ccc(N3CCN(Cc4ccccc4-c4ccc(Cl)cc4)CC3)cc2)cc1[N+](=O)[O-] [ABT-737] | -5.03 | -5.43 |
| CN[C@@H](C)C(=O)N[C@H]1CN(C(=O)CC(C)C)CC[C@H]2CC[C@@H](C(=O)NC(c3ccccc3)c3ccccc3)N2C1=O [AT-406] | -4.98 | -5.63 |
| NC/1=N/C2=C([NH]C=N2)C(=S)N1 [Tioguanine] | -5.58 | -5.03 |
| COc1ccc(-c2cc3nccn3c(Nc3ncccc3C(N)=O)n2)cc1OC [BAY61-3606] | -4.98 | -5.53 |
| N#Cc1c(C2CCNCC2)cc(-c2c(O)cccc2OCC2CC2)nc1N [IKK-2 Inhibitor VIII] | -4.73 | -4.88 |
| Nc1nc(N)c(N=O)c(OCC2CCCCC2)n1 [NU-6027] | -4.73 | -5.33 |
| CC(C)(O)CC(=O)NCCn1ccc2ncnc(Nc3ccc(Oc4cccc(C(F)(F)F)c4)c(Cl)c3)c21 [TAK-285] | -6.88 | -5.43 |
| CCN(CC)CCCC(C)Nc1ccnc2cc(Cl)ccc12 (configuration not stated) [Chloroquine (CQ)] | -4.73 | -4.98 |
| Cc1c(NC(=O)OC[C@@H]2COCCN2)cn2ncnc(Nc3ccc4c(cnn4Cc4cccc(F)c4)c3)c12 [AC-480] | -6.68 | -6.53 |
| COc1cccc2c1C(=O)c1c(O)c3c(c(O)c1C2=O)C[C@@](O)(C(=O)CO)C[C@@H]3O[C@H]1C[C@H](N)[C@H](O)[C@H](C)O1 [Doxorubicin] | -6.43 | -7.33 |
| Cc1n[nH]c2ccc(-c3cncc(OC[C@@H](N)Cc4c[nH]c5ccccc45)c3)cc12 | -6.08 | -6.03 |
| CC(C)(C)C(=O)OCOP(=O)(COCCn1cnc2c(N)ncnc21)OCOC(=O)C(C)(C)C [Adefovir dipivoxil] | -5.28 | -6.93 |

| Structure (SMILES) | AC50 for growth inhibition (log10 M) [1] | AC50 for growth inhibition (log10 M) [2] |
| --- | --- | --- |
| CCc1cc(-c2n[nH]c(C)c2-c2ccc3c(c2)OCCO3)c(O)cc1O | -5.68 | -5.53 |
| CC(=O)NCC(=O)N1[C@@H]2CC[C@H]1c1ccc(Nc3ncc(C(F)(F)F)c(NC4CCC4)n3)cc12 | -5.33 | -5.48 |
| COc1cc2c(Oc3ccc(NC(=O)C4(C(=O)Nc5ccc(F)cc5)CC4)cc3F)ccnc2cc1OCCCN1CCOCC1 [Foretinib] | -4.73 | -4.83 |
| NC/1=N/C(=O)N(/C=N1)[C@@H]2O[C@H](CO)[C@@H](O)[C@H]2O [5-Azacitidine] | -5.53 | -4.88 |
| CC(O)(C#Cc1ccc2c(c1)N(c1nc(N)ncc1Cl)CC2)c1nccs1 (configuration not stated) | -4.88 | -4.73 |
| CC/C(=C(\c1ccccc1)c1ccc(OCCN(C)C)cc1)c1ccccc1 [Tamoxifen] | -4.73 | -4.68 |
| Cc1cccc(Nc2nc(N[C@@H]3CCCC[C@@H]3N)ncc2C(N)=O)c1 | -4.63 | -4.73 |
| CC[S+](=O)([O-])Nc1ccc2c(c1)/C(=C(/Nc1ccc(CN3CCCCC3)cc1)c1ccccc1)C(=O)N2 [Hesperadin] | -5.23 | -5.18 |
| NCC/1=C/NC(=S)N1[C@H]2CCC3=C(F)C=C(F)C=C3C2 [Nepicastat hydrochloride] | -5.03 | -4.98 |
| CCc1cc(Nc2nccc(-c3c(-c4ccc(OC)c(C(=O)Nc5c(F)cccc5F)c4)nc4ccccn34)n2)c(OC)cc1N1CCC(N2CCN([S+](C)(=O)[O-])CC2)CC1 | -5.63 | -7.33 |
| COc1ccc2c(c[n+](C)c3c4cc5c(cc4ccc23)OCO5)c1OC [Chelerythrine chloride] | -5.03 | -5.08 |
| O=C(CCCCCCC(=O)Nc1cccnc1)NO [Pyroxamide] | -5.33 | -5.53 |
| COC1CCC(C(=O)c2ccc3nc4c(cc3c2)CCCO4)CC1 (configuration not stated) | -4.78 | -4.78 |
| O=C(Cc1ccc(-c2ccc(OCCN3CCOCC3)cc2)cn1)NCc1ccccc1 [KX-01] | -7.48 | -8.18 |
| COc1ccc(-c2ccc3c(N4CCOC[C@@H]4C)nc(N4CCOC[C@@H]4C)nc3n2)cc1CO [AZD-8055] | -5.98 | -7.83 |
| NC(=O)N1CCC(CC(=O)N2CCC([C@H]3c4ncc(Br)cc4CCc4cc(Cl)cc(Br)c43)CC2)CC1 [Lonafarnib] | -4.78 | -4.78 |
| C=C(C)[C@H]1Cc2c(ccc3c2O[C@@H]2COc4cc(OC)c(OC)cc4[C@@H]2C3=O)O1 [Rotenone] | -6.33 | -5.38 |
| Cc1cccc2c1CC[C@H](CN1CCC(c3c(Cl)cccc3Cl)CC1)C[C@@H]2O | -4.78 | -4.73 |
| CN(C)C(=O)c1ccc([S+](=O)([O-])c2ccc(NC(=O)[C@@](C)(O)C(F)(F)F)c(Cl)c2)cc1 [AZD-7545] | -4.73 | -4.88 |
| NC\1=N\C(=O)N(\C=C1F)[C@H]2C[C@H](O)[C@@H](CO)O2 | -6.53 | -8.38 |
| O=C1c2c(O)ccc(O)c2C(=O)c2c(NCCNCCO)ccc(NCCNCCO)c21 [Mitoxantrone] | -5.88 | -7.13 |
| CN(C)C(=O)[C@H](O)[C@H](Cc1ccccc1)NC(=O)c1cc2cc(Cl)ccc2[nH]1 | -5.13 | -5.23 |
| Cc1coc2c1C(=O)C(=O)c1c-2ccc2c1CCCC2(C)C [Tanshinone IIA] | -4.68 | -5.58 |

— the supplement of paper PMC5412046
